Experimental data published in the supplement of paper PMC10307832.

What was measured:
Test in all cases: relative viability (nuclei count vs DMSO), 5 days (fraction); higher = more cells survive
[1] = compound: CCCS(=O)(=O)Nc1ccc(F)c(C(=O)c2c[nH]c3ncc(-c4ccc(Cl)cc4)cc23)c1F [Vemurafenib] + CC(=O)c1c(C)c2cnc(Nc3ccc(N4CCNCC4)cn3)nc2n(C2CCCC2)c1=O [Palbociclib] (partner 0.5 µM)
Outline: (§1)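 A single step with final 0.05% Triton X-100, 1% formaldehyde and 1 ug/ml Hoechst fixed the cells and stained nuclei 5 days after treatment. Lung cancer cell lines in 1536-well plates had been treated by pin tool the day after seeding with one drug alone or a fixed anchor-drug dose plus five library-drug doses (not always all listed) in √10 steps, and nuclei were counted on 4× images. Relative viability is the ratio of nuclei in treated wells to nuclei in vehicle wells, taken as the median of duplicate plates.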

Vemurafenib + Navitoclax = compound: CCCS(=O)(=O)Nc1ccc(F)c(C(=O)c2c[nH]c3ncc(-c4ccc(Cl)cc4)cc23)c1F [Vemurafenib] + CC1(C)CCC(c2ccc(Cl)cc2)=C(CN2CCN(c3ccc(C(=O)NS(=O)(=O)c4ccc(N[C@H](CCN5CCOCC5)CSc5ccccc5)c(S(=O)(=O)C(F)(F)F)c4)cc3)CC2)C1 [Navitoclax] (partner 0.5 µM)
Outline: as §1

OSI-027 + Bortezomib = compound: COc1cccc2cc(-c3nc([C@H]4CC[C@H](C(=O)O)CC4)n4ncnc(N)c34)[nH]c12 [OSI-027] + CC(C)C[C@H](NC(=O)[C@H](Cc1ccccc1)NC(=O)c1cnccn1)B(O)O [Bortezomib] (partner 0.002 µM)
Outline: as §1

OSI-027 + Decitabine = compound: COc1cccc2cc(-c3nc([C@H]4CC[C@H](C(=O)O)CC4)n4ncnc(N)c34)[nH]c12 [OSI-027] + Nc1ncn([C@H]2C[C@H](O)[C@@H](CO)O2)c(=O)n1 [Decitabine] (partner 2 µM)
Outline: as §1

Cell Line	relative viability ([1]; first compound 0.03162 µM)	relative viability ([1]; first compound 0.1 µM)	relative viability ([1]; first compound 0.3162 µM)	relative viability ([1]; first compound 1 µM)	relative viability (Vemurafenib + Navitoclax; first compound 0.03162 µM)	relative viability (Vemurafenib + Navitoclax; first compound 0.1 µM)	relative viability (Vemurafenib + Navitoclax; first compound 1 µM)	relative viability (OSI-027 + Bortezomib; first compound 0.01 µM)	relative viability (OSI-027 + Bortezomib; first compound 0.03162 µM)	relative viability (OSI-027 + Bortezomib; first compound 0.1 µM)	relative viability (OSI-027 + Bortezomib; first compound 0.3162 µM)	relative viability (OSI-027 + Bortezomib; first compound 1 µM)	relative viability (OSI-027 + Decitabine; first compound 0.01 µM)	relative viability (OSI-027 + Decitabine; first compound 0.03162 µM)	relative viability (OSI-027 + Decitabine; first compound 0.1 µM)	relative viability (OSI-027 + Decitabine; first compound 0.3162 µM)	relative viability (OSI-027 + Decitabine; first compound 1 µM)	relative viability (Vemurafenib + Navitoclax; first compound 0.3162 µM)
NCI-H838	0.213	0.236	0.177	0.343	1.07	1.21	1.27	0.751	0.71	0.78	0.531	0.325	0.503	0.483	0.403	0.378	0.337	–
NCI-H1355	0.384	0.325	0.436	0.45	0.895	0.96	0.976	1.24	1.19	1.01	0.926	0.528	0.329	0.437	0.356	0.376	0.243	0.99
NCI-H1437	0.311	0.307	0.311	0.346	1.01	1.06	1.09	0.43	0.409	0.538	0.487	0.258	0.499	0.614	0.63	0.493	0.387	1.05
NCI-H1650	0.314	0.255	0.356	0.351	1.12	–	1.15	0.171	0.195	0.206	0.201	0.19	0.454	0.45	0.471	0.308	0.314	1.18
